The record followed here is patent US20260224594A1, “COMPOSITION FOR TREATING CANCER CACHEXIA, COMPRISING DIFLUNISAL OR A PHARMACEUTICALLY ACCEPTABLE SALT THEREOF” (ANIMUSCURE INC., priority 2023, published 2026).

For data set [1], the system named is C2C12 myoblast cells. Kind of data set: Cytotoxicity of diflunisal, MTT assay. The format is cell-based, mouse. As to conditions: approximately 10,000 nM, 18 hours, vs control. The protocol: C2C12 is a myoblast cell line obtained from the C3H mouse strain, and is widely used to study muscle cell differentiation. The cells were cultured in a cell culture medium (growth medium (GM)), and muscle cell differentiation was induced in a differentiation medium (DM). DMEM containing 15% fetal bovine serum (FBS) was used as the cell culture medium, and DMEM containing 2% horse serum was used as the differentiation medium.
The cytotoxicity of diflunisal (CAS No. 22494-42-4, W06) was evaluated using an MTT assay. C2C12 myoblast cells were treated with diflunisal at concentrations of 0, 1, 10, 100, 1,000, and 10,000 nM for 18 hours, and cell viability was then confirmed using the MTT assay. Myoblast cells (1.0×10^4 cells/96 well) were allowed to react with 5 mg/mL MTT for 4 hours in a cell culture medium, and the eluted reaction product was then measured for absorbance at 570 nm.
(In general: Tetrazolium dyes change colour on reduction, which living cells bring about.)

The test system of data set [2] is C2C12 cell lines. Kind of data set: Muscle cell differentiation, MHC immunofluorescence staining and myotube diameter. The class given is cell-based, mouse. Conditions: 10, 100, 1,000, 10,000 nM, day 3 of differentiation induction. The protocol: (§1) C2C12 is a myoblast cell line obtained from the C3H mouse strain, and is widely used to study muscle cell differentiation. The cells were cultured in a cell culture medium (growth medium (GM)), and muscle cell differentiation was induced in a differentiation medium (DM). DMEM containing 15% fetal bovine serum (FBS) was used as the cell culture medium, and DMEM containing 2% horse serum was used as the differentiation medium. To induce muscle cell differentiation, cells were seeded in a cell culture medium and cultured. When the density of cells reached approximately 80% to 90%, the medium was replaced with a differentiation medium, and differentiation was induced for approximately 2 to 3 days. To analyze the effect of diflunisal on the differentiation of muscle stem cells, MHC immunofluorescence staining was performed (FIG. 2). […] On day 3 of differentiation induction, immunofluorescence staining was performed using an MHC antibody to compare and analyze the degree of myotube formation.

In data set [3] the test system is C2C12 cell lines. Kind of data set: Immunoblotting of differentiation markers MHC and myogenin. The class given is cell-based, mouse. Conditions: positive control ursolic acid (UA). The method, then: as §1, with “formation. […] In addition, the expression levels of differentiation markers were confirmed through immunoblotting.” for “formation.”
Background: A western blot detects proteins with antibodies after separation by electrophoresis.

In data set [4] the test system is C2C12 myoblast cells. Briefly: Myoblast proliferation, BrdU staining. The class given is cell-based, mouse. As to conditions: 1 μM, approximately 20 hours. The method, then:
To analyze the effect of diflunisal on the proliferation of myoblast cells, a BrdU staining experiment was performed. C2C12 myoblast cells were treated with DMSO as a control or diflunisal (1 μM) for approximately 20 hours, and then allowed to react with BrdU for 15 minutes. Thereafter, immunofluorescence staining was performed using an antibody against BrdU (FIG. 5A). As a result, it was confirmed that the proliferation of myoblast cells increased in the group treated with diflunisal.

In the next data set the test system is Pax7. Kind of data set: Pax7 mRNA expression (qRT-PCR). As to conditions: C2C12 cells treated with diflunisal. The class given is cell-based, mouse. From the text:
FIGS. 5A-5B and 6 show the results of confirming the stem cell differentiation-promoting effect through administration of diflunisal. […] In addition, it was confirmed whether the expression level of Pax7, which is a muscle proliferation marker, increased due to diflunisal treatment.
A general note: Quantitative PCR measures a nucleic acid by following its amplification.

Data set [5] has as its system C57BL/6 male mice with CTX-induced muscle damage. Kind of data set: Stem cell proliferation in cardiotoxin (CTX) muscle damage animal model, BrdU staining of TA muscle. The format is in vivo, mouse. As to conditions: oral 0.02 mg/kg for 2 weeks, CTX injection, then 0.02 mg/kg for 3 days. The protocol: C57BL/6 male mice were orally administered diflunisal at a dose of 0.02 mg/kg for 2 weeks, and then on the second week, 10 μM cardiotoxin (CTX) was directly injected into the muscle at 2 μL per g of body weight to induce muscle damage. Thereafter, diflunisal was administered at a dose of 0.02 mg/kg for 3 days. Then, immunofluorescence staining was performed on the TA muscle tissue of the mice using a BrdU antibody. […] Also, a quantitative comparison confirmed that the proportion of BrdU-positive cells increased by more than 2.5 times compared to the control when the cells were treated with diflunisal (FIG. 8).

In data set [6] the test system is C2C12 myoblast cells. Briefly: Dexamethasone (DEX)-induced muscle atrophy in C2C12 myotubes. The class given is cell-based, mouse. Conditions: 100 μM DEX pretreatment 4 hours, diflunisal 1 μM, 24 hours in DM. The method, then: To determine whether diflunisal could recover or protect muscles from dexamethasone (DEX)-induced muscle atrophy, this experiment was performed using C2C12 myoblast cells. C2C12 myoblast cells were differentiated in a differentiation medium (DM) for 2 days, pretreated with 100 μM DEX for 4 hours, and then treated with diflunisal (1 μM) together with DMSO as a vehicle. Then, the C2C12 myoblast cells were further cultured in DM for 24 hours. Immunofluorescence staining was performed on dexamethasone-treated C2C12 myotube cells using an MHC antibody to compare and analyze the degree of myotube formation. […] Also, when the expression level of atrogin-1, which is a muscle atrophy marker, was confirmed through immunoblotting, it was confirmed that its expression increased when dexamethasone was administered.

For data set [7], the system named is muscle cells (myotubes) in cancer cell culture medium (CM). Briefly: Cachexia induced by cancer cell culture medium (CM) in muscle cells. As to conditions: 10, 100, 1,000 nM. The class given is cell-based. The protocol:
To confirm the amelioration effect of diflunisal on cancer cachexia, cancer cachexia was induced in muscle cells using a cancer cell culture medium (CM) (FIG. 11, top). […] Also, the diameter of the myotubes was measured to confirm the improvement.

Data set [8] has as its system C57BL/6 mice injected with Lewis lung carcinoma. Kind of data set: Cancer cachexia animal model (Lewis lung carcinoma injected mice). The format is in vivo, mouse. The method, then:
Lewis lung carcinoma (LCC, 5×10^6 cells/mice) was injected into C57BL/6 mice to induce lung cancer. Two weeks after injection, diflunisal was orally administered daily for 21 days at a dose of 0.02 or 0.2 mpk (FIG. 13). Thereafter, the changes in body weight, tumor weight, and tumor-free body weight for each mouse were measured. […] To compare the motor ability in the cancer cachexia-induced mouse model, a grip strength test was conducted for each experimental group. […]

[9] abbreviates: cancer cachexia-induced mice, diflunisal administered.

Turning to `O=C(O)c1cc(-c2ccc(F)cc2F)ccc1O` [diflunisal], the “cell viability (MTT assay)” value in the data set with C2C12 myoblast cells [1] was “almost similar to that of the control”. The diameter of myotubes entry with C2C12 cell lines [2] was “increased in a concentration-dependent manner”. Also, the “muscle cell differentiation (myotube formation, MHC immunofluorescence)” value in the data set with C2C12 cell lines [2] (vs DMSO control) is “promoted in a concentration-dependent manner”. For the same compound, in the data set with C2C12 cell lines [3], the “expression of differentiation marker MHC (immunoblotting)” value was “induced an increase in the expression” and the “expression of differentiation marker myogenin (immunoblotting)” value was “induced an increase in the expression”. Besides, the “proliferation of myoblast cells (BrdU immunofluorescence staining)” value in the data set with C2C12 myoblast cells [4] (vs DMSO) was “increased”. The “proportion of BrdU-positive cells” value in the data set on C2C12 myoblast cells [4] (vs DMSO control) is recorded as “significantly increased compared to the control”. Further, the “relative expression level of Pax7 mRNA” value in the data set on Pax7 was “increased”. For the same compound, the “increase of proportion of BrdU-positive cells compared to the control” value in [5] (TA muscle) was “more than 2.5 times”. In [5], the “proliferation of myoblast cells in TA muscle (BrdU staining)” value is “increased”. Besides, in the data set on C2C12 myoblast cells [6], the “MHC expression (immunofluorescence) after dexamethasone-induced atrophy” value was “restored”; the “MuRF1 expression (qRT-PCR)” value was “significantly reduced”; the “expression level of atrogin-1 (muscle atrophy marker, immunoblotting)” value was “decreased again”. For the same compound, the “diameter of myotubes in CM-induced cancer cachexia model” value in data set [7] was “increased in a concentration-dependent manner”. In [8] (0.02 mpk oral daily for 21 days, vs cancer-induced group), the tumor-free body weight entry is “significantly increased compared to the cancer-induced group”. Further, the “grip strength (motor ability)” value in data set [8] (0.02 or 0.2 mpk oral daily for 21 days, vs cancer-induced group) is “increased in a concentration-dependent manner”. Further, in data set [8] (setting [9]), the “muscle mass loss of hindlimb muscles (TA, EDL, SOL, GA)” value is “significantly improved”; the “reduction in fat and organ weights (white fat, visceral fat, liver, heart, spleen)” value is “improved”; the “relative mRNA expression level of MuRF-1” value is “decreased again”; the “relative mRNA expression level of atrogin-1” value is reported as “decreased again”. In data set [8] (oral daily for 21 days, 0.02 or 0.2 mpk), the “change (decrease) in tumor-free body weight” value is recorded as “improved”. Further, the overall body weight entry in [8] (oral daily for 21 days, 0.02 or 0.2 mpk, all experimental groups) is reported as “no significant change”.
